# Data: patent publication US20090221829A1 (priority 2005, published 2009)
# System: Candida albicans(KCTC 1940), Aspergillus niger (ATCC 9642) and Saccharomyces cerevisiae
# Experiment: Relative antifungal activity by agar dilution method (vs Miconazole);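 further: scores 5 to 7 mean a lower fungicidal concentration than Miconazole so higher is more potent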
# Assay type: cell-based
# Conditions: agar dilution method; fungicidal concentration relative to control drug Miconazole (=4)
# Source text: Novel compounds represented by the above chemical formula (I), and the relative activities in accordance with the agar dilution method in Sabouraud dextrose agar media, Czapek agar media and Yeast Extract-Peptone-Dextrose agar media for Candida albicans(KCTC 1940), Aspergillus niger (ATCC 9642) and Saccharomyces cerevisiae are described respectively in following Table 1.
row,Compound,Relative Activity
1,"CCCCCCCC1=[N+](Cc2ccc(F)c(F)c2)CCc2cc(OC)c(OC)cc21.[Cl-] [Compound No. 43, 1-n-heptyl-2-(3,4-difluorophenyl)methyl-3,4-dihydro-6,7-dimethoxyisoquinolinium chloride]",3
2,"CCCCCCCCCCCC1=[N+](Cc2ccc(F)c(F)c2)CCc2cc(OC)c(OC)cc21.[Cl-] [Compound No. 44, 1-n-undecyl-2-(3,4-difluorophenyl)methyl-3,4-dihydro-6,7-dimethoxyisoquinolinium chloride]",1
3,"CCCCCCC1=[N+](Cc2ccc(C(F)(F)F)cc2)CCc2cc(OC)c(OC)cc21.[Cl-] [Compound No. 45, 1-n-hexyl-2-(4-trifluoromethylphenyl)methyl-3,4-dihydro-6,7-dimethoxyisoquinolinium chloride]",4
4,"CCCCCCCCCCCCCCCC1=[N+](Cc2ccc(F)c(F)c2)CCc2cc(OC)c(OC)cc21.[Cl-] [Compound No. 46, 1-n-pentadecyl-2-(3,4-difluorophenyl)methyl-3,4-dihydro-6,7-dimethoxyisoquinolinium chloride]",1
5,"COc1cc2c(cc1OC)C(c1ccccc1F)=[N+](Cc1ccc(F)c(F)c1)CC2.[Cl-] [Compound No. 47, 1-(2-fluorophenyl)-2-(3,4-difluorophenyl)methyl-3,4-dihydro-6,7-dimethoxyisoquinolinium chloride]",6
6,"COc1cc2c(cc1OC)C(C)=[N+](Cc1ccccc1Cl)CC2.[Cl-] [Compound No. 49, 1-methyl-2-(2-chlorophenyl)methyl-3,4-dihydro-6,7-dimethoxyisoquinolinium chloride]",6
7,"CCCCCC1=[N+](Cc2ccccc2Cl)CCc2cc(OC)c(OC)cc21.[Cl-] [Compound No. 50, 1-n-pentyl-2-(2-chlorophenyl)methyl-3,4-dihydro-6,7-dimethoxyisoquinolinium chloride]",6
8,"CCCCCCC1=[N+](Cc2ccccc2Cl)CCc2cc(OC)c(OC)cc21.[Cl-] [Compound No. 51, 1-n-hexyl-2-(2-chlorophenyl)methyl-3,4-dihydro-6,7-dimethoxyisoquinolinium chloride]",4
9,"CCCCCCCC1=[N+](Cc2ccccc2Cl)CCc2cc(OC)c(OC)cc21.[Cl-] [Compound No. 52, 1-n-heptyl-2-(2-chlorophenyl)methyl-3,4-dihydro-6,7-dimethoxyisoquinolinium chloride]",3
10,"CCCCCCCCCCCC1=[N+](Cc2ccccc2Cl)CCc2cc(OC)c(OC)cc21.[Cl-] [Compound No. 53, 1-n-undecyl-2-(2-chlorophenyl)methyl-3,4-dihydro-6,7-dimethoxyisoquinolinium chloride]",2
11,"CCCCCCCCCCCCCCCC1=[N+](Cc2ccccc2Cl)CCc2cc(OC)c(OC)cc21.[Cl-] [Compound No. 54, 1-n-pentadecyl-2-(2-chlorophenyl)methyl-3,4-dihydro-6,7-dimethoxyisoquinolinium chloride]",1
12,"COc1cc2c(cc1OC)C(C)=[N+](Cc1c(F)cccc1F)CC2.[Cl-] [Compound No. 56, 1-methyl-2-(2,6-difluorophenyl)methyl-3,4-dihydro-6,7-dimethoxyisoquinolinium chloride]",6
13,"CCCCCCC1=[N+](Cc2c(F)cccc2F)CCc2cc(OC)c(OC)cc21.[Cl-] [Compound No. 58, 1-n-hexyl-2-(2,6-difluorophenyl)methyl-3,4-dihydro-6,7-dimethoxyisoquinolinium chloride]",4
14,"CCCCCCCCCCCC1=[N+](Cc2c(F)cccc2F)CCc2cc(OC)c(OC)cc21.[Cl-] [Compound No. 59, 1-n-undecyl-2-(2,6-difluorophenyl)methyl-3,4-dihydro-6,7-dimethoxyisoquinolinium chloride]",1
15,"CCCCCCCC1=[N+](Cc2c(F)cccc2F)CCc2cc(OC)c(OC)cc21.[Cl-] [Compound No. 61, 1-n-heptyl-2-(2,6-difluorophenyl)methyl-3,4-dihydro-6,7-dimethoxyisoquinolinium chloride]",4
16,"COc1cc2c(cc1OC)C(c1ccc(C(C)(C)C)cc1)=[N+](Cc1c(F)cccc1F)CC2.[Cl-] [Compound No. 63, 1-(4-t-butylphenyl)-2-(2,6-difluorophenyl)methyl-3,4-dihydro-6,7-dimethoxyisoquinolinium chloride]",6
17,"COc1cc2c(cc1OC)C(C)=[N+](Cc1c(F)cccc1Cl)CC2.[Cl-] [Compound No. 64, 1-methyl-2-(2-chloro-6-fluorophenyl)methyl-3,4-dihydro-6,7-dimethoxyisoquinolinium chloride]",6
18,"COc1cc2c(cc1OC)C(C(C)C)=[N+](Cc1c(F)cccc1Cl)CC2.[Cl-] [Compound No. 65, 1-i-propyl-2-(2-chloro-6-fluorophenyl)methyl-3,4-dihydro-6,7-dimethoxyisoquinolinium chloride]",5

row,Compound,Relative Activity
1,"CCCCCC1=[N+](Cc2c(F)cccc2Cl)CCc2cc(OC)c(OC)cc21.[Cl-] [Compound No. 66, 1-n-pentyl-2-(2-chloro-6-fluorophenyl)methyl-3,4-dihydro-6,7-dimethoxyisoquinolinium chloride]",5
2,"CCCCCCCC1=[N+](Cc2c(F)cccc2Cl)CCc2cc(OC)c(OC)cc21.[Cl-] [Compound No. 67, 1-n-heptyl-2-(2-chloro-6-fluorophenyl)methyl-3,4-dihydro-6,7-dimethoxyisoquinolinium chloride]",4
3,"CCCCCCCCCCCC1=[N+](Cc2c(F)cccc2Cl)CCc2cc(OC)c(OC)cc21.[Cl-] [Compound No. 68, 1-n-undecyl-2-(2-chloro-6-fluorophenyl)methyl-3,4-dihydro-6,7-dimethoxyisoquinolinium chloride]",2
4,"COc1cc2c(cc1OC)C(c1ccccc1F)=[N+](Cc1c(F)cccc1Cl)CC2.[Cl-] [Compound No. 69, 1-(2-fluorophenyl)-2-(2-chloro-6-fluorophenyl)methyl-3,4-dihydro-6,7-dimethoxyisoquinolinium chloride]",6
5,"COc1cc2c(cc1OC)C(c1ccc(C(C)(C)C)cc1)=[N+](Cc1c(F)cccc1Cl)CC2.[Cl-] [Compound No. 70, 1-(4-t-butylphenyl)-2-(2-chloro-6-fluorophenyl)methyl-3,4-dihydro-6,7-dimethoxyisoquinolinium chloride]",6
6,"COc1cc2c(cc1OC)C(C)=[N+](Cc1ccccc1[N+](=O)[O-])CC2.[Cl-] [Compound No. 71, 1-methyl-2-(2-nitrophenyl)methyl-3,4-dihydro-6,7-dimethoxyisoquinolinium chloride]",6
7,"COc1cc2c(cc1OC)C(C(C)C)=[N+](Cc1ccccc1[N+](=O)[O-])CC2.[Cl-] [Compound No. 72, 1-i-propyl-2-(2-nitrophenyl)methyl-3,4-dihydro-6,7-dimethoxyisoquinolinium chloride]",6
8,"CCCCCCCC1=[N+](Cc2ccccc2[N+](=O)[O-])CCc2cc(OC)c(OC)cc21.[Cl-] [Compound No. 73, 1-n-heptyl-2-(2-nitrophenyl)methyl-3,4-dihydro-6,7-dimethoxyisoquinolinium chloride]",5
9,"CCCCCCCCCCCC1=[N+](Cc2ccccc2[N+](=O)[O-])CCc2cc(OC)c(OC)cc21.[Cl-] [Compound No. 74, 1-n-undecyl-2-(2-nitrophenyl)methyl-3,4-dihydro-6,7-dimethoxyisoquinolinium chloride]",2
10,"COc1cc2c(cc1OC)C(c1ccc(C(C)(C)C)cc1)=[N+](Cc1ccccc1[N+](=O)[O-])CC2.[Cl-] [Compound No. 75, 1-(4-t-butylphenyl)-2-(2-nitrophenyl)methyl-3,4-dihydro-6,7-dimethoxyisoquinolinium chloride]",6
11,"CCCCCCCC1=[N+](Cc2ccc(O)c([N+](=O)[O-])c2)CCc2cc(OC)c(OC)cc21.[Cl-] [Compound No. 76, 1-n-heptyl-2-(4-hydroxy-3-nitrophenyl)methyl-3,4-dihydro-6,7-dimethoxyisoquinolinium chloride]",4
12,"CCCCCCCCCCCC1=[N+](Cc2ccc(O)c([N+](=O)[O-])c2)CCc2cc(OC)c(OC)cc21.[Cl-] [Compound No. 77, 1-n-undecyl-2-(4-hydroxy-3-nitrophenyl)methyl-3,4-dihydro-6,7-dimethoxyisoquinolinium chloride]",2
13,"COc1cc2c(cc1OC)C(C)=[N+](Cc1cc(Br)c(OC)c(OC)c1)CC2.[Cl-] [Compound No. 78, 1-methyl-2-(3-bromo-4,5-dimethoxy)methyl-3,4-dihydro-6,7-dimethoxyisoquinolinium chloride]",6
14,"CCCCCCCC1=[N+](Cc2cc(Br)c(OC)c(OC)c2)CCc2cc(OC)c(OC)cc21.[Cl-] [Compound No. 79, 1-n-heptyl-2-(3-bromo-4,5-dimethoxyphenyl)methyl-3,4-dihydro-6,7-dimethoxyisoquinolinium chloride]",5
15,"COc1ccc2c(c1)CC[N+](Cc1ccccc1F)=C2C.[Cl-] [Compound No. 80, 1-methyl-2-(2-fluorophenyl)methyl-3,4-dihydro-6-methoxyisoquinolinium chloride]",6
16,"CCC1=[N+](Cc2ccccc2F)CCc2cc(OC)ccc21.[Cl-] [Compound No. 81, 1-ethyl-2-(2-fluorophenyl)methyl-3,4-dihydro-6-methoxyisoquinolinium chloride]",6
17,"CCCC1=[N+](Cc2ccccc2F)CCc2cc(OC)ccc21.[Cl-] [Compound No. 82, 1-n-propyl-2-(2-fluorophenyl)methyl-3,4-dihydro-6-methoxyisoquinolinium chloride]",6
18,"COc1ccc2c(c1)CC[N+](Cc1ccccc1F)=C2CC(C)C.[Cl-] [Compound No. 84, 1-(2-methyl)propyl-2-(2-fluorophenyl)methyl-3,4-dihydro-6-methoxyisoquinolinium chloride]",6
